Test [1] concerns the target T1, 4-hydroxyphenylpyruvate dioxygenase (Arabidopsis thaliana, UniProt P93836).
T1 sequence (P93836 whole entry): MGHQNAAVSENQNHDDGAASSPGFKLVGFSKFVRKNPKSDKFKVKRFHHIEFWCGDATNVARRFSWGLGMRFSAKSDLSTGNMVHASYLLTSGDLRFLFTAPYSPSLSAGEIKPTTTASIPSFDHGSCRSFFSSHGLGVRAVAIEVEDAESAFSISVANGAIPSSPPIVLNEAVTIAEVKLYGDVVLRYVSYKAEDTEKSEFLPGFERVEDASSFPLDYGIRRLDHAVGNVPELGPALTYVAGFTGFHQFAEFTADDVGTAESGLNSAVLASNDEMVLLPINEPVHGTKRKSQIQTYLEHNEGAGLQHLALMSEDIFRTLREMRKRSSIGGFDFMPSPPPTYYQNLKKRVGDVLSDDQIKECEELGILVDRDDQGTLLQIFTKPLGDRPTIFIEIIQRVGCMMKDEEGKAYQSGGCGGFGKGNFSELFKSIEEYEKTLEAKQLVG
Nature of the test: Inhibition of Arabidopsis thaliana 4-hydroxyphenylpyruvate dioxygenase assessed as formation of homogentisate by HGA dioxygenase coupling enzyme assay. As to conditions: read-out: I50.

The target of test [2] is 4-hydroxyphenylpyruvate dioxygenase (Rattus norvegicus, UniProt P32755). Description: Inhibition of Rattus norvegicus (rat) 4-hydroxyphenylpyruvate dioxygenase assessed as formation of homogentisate by HGA dioxygenase coupling enzyme assay. The settings on record: read-out: I50.
4-hydroxyphenylpyruvate dioxygenase (Rattus norvegicus, UniProt P32755), sequence (P32755 whole entry): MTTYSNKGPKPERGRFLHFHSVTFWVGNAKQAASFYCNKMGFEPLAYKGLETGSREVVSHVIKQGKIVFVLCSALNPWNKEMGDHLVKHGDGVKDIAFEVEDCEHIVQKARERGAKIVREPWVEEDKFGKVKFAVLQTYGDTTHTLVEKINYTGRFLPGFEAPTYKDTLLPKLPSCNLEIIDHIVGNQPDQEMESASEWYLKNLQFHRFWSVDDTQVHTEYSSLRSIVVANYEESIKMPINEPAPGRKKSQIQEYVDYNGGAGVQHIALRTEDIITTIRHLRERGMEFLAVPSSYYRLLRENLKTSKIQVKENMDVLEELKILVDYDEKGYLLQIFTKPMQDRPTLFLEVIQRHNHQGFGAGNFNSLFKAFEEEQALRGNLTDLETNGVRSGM
For test [3], the target named is 4-hydroxyphenylpyruvate dioxygenase (Rattus norvegicus) (UniProt P32755). Description: Inhibition of Rattus norvegicus (rat) 4-hydroxyphenylpyruvate dioxygenase assessed as formation of homogentisate upto 20 uM by HGA dioxygenase coupling enzyme assay.
4-hydroxyphenylpyruvate dioxygenase (Rattus norvegicus), sequence (P32755 whole entry): as above

Activity calls are given as the source filed them. The calls are words filed in the database; no cut-off is given here.

On to `COc1ccc(-c2c(S(C)(=O)=O)ccc(C(=O)c3cnn(C(C)(C)C)c3O)c2C)cc1`, for which the IC50 in test [1] was 7 nM; in test [2] it was below 20 nM.
With `CC(C)(C)n1nc(-c2ccc(Cl)cc2Cl)c(C(=O)c2ccc(S(C)(=O)=O)cc2Cl)c1O`, in test [3], the inhibition result is “inactive”.

For the origin of these results see ChEMBL document CHEMBL3046924 (Biochemistry, 2004).
